Assay results from publication PMC11062922 (Nature Chemical Biology, 2023).
Where two headings read alike, the source gives them in different places.

Key:
MOB1A = molecular target: T1, MOB1A (Homo sapiens, UniProt Q9H8S9); test: Kinobeads full dose-response competition binding: MOB1A; conditions: Gene Name MOB1A
T1 construct: to maximize the representation of endogenous proteins; endogenous in cells
T1 sequence (Q9H8S9 2-216 limits assumed): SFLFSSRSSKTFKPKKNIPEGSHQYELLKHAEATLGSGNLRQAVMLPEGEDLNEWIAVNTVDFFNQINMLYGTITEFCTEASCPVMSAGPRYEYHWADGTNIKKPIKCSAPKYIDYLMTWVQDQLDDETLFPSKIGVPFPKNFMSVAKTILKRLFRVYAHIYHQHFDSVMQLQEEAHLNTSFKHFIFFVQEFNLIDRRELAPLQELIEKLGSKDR
T1 sequence (O95835 1-1130 partner): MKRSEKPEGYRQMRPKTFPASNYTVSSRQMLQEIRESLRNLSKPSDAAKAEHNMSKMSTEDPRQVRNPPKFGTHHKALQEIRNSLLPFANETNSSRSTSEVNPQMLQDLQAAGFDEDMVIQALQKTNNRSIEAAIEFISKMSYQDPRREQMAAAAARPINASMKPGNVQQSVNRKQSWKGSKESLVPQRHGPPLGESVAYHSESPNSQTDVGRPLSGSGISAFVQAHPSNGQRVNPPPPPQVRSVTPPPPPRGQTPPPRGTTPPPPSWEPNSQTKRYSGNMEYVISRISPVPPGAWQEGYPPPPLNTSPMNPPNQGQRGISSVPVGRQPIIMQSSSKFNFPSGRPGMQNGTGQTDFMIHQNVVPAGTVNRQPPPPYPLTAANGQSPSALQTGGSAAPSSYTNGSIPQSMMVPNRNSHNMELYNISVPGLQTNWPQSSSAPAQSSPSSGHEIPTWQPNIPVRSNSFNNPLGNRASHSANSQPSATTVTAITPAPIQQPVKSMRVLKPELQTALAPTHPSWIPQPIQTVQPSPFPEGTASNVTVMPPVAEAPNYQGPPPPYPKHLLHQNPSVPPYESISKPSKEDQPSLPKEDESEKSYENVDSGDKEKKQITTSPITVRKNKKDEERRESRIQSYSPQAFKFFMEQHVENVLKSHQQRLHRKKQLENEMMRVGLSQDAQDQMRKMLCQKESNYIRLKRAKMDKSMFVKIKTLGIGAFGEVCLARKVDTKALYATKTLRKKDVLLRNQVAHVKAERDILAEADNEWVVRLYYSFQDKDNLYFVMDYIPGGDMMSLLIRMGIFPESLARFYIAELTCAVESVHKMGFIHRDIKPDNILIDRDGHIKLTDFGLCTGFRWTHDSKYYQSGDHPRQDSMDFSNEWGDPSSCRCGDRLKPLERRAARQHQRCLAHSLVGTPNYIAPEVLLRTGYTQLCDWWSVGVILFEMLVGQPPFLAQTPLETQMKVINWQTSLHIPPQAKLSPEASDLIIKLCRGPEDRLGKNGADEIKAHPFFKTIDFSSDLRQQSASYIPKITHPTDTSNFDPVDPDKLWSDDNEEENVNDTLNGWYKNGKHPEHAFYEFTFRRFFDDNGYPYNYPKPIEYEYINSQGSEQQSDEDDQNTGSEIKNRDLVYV

PRKACA = molecular target: T2, PRKACA (Homo sapiens, UniProt P17612); test: Kinobeads full dose-response competition binding: PRKACA; conditions: Gene Name PRKACA
T2 construct: a mixture of lysates from five cancer cell lines; endogenous in cells

ERN2 = molecular target: T3, ERN2 (Homo sapiens, UniProt Q76MJ5); test: Kinobeads two-dose competition binding: ERN2; conditions: read-out: Lestaurtinib Drugmatrix value, Gene Name ERN2
T3 construct: endogenous in cells
T3 sequence (Q76MJ5 35-926): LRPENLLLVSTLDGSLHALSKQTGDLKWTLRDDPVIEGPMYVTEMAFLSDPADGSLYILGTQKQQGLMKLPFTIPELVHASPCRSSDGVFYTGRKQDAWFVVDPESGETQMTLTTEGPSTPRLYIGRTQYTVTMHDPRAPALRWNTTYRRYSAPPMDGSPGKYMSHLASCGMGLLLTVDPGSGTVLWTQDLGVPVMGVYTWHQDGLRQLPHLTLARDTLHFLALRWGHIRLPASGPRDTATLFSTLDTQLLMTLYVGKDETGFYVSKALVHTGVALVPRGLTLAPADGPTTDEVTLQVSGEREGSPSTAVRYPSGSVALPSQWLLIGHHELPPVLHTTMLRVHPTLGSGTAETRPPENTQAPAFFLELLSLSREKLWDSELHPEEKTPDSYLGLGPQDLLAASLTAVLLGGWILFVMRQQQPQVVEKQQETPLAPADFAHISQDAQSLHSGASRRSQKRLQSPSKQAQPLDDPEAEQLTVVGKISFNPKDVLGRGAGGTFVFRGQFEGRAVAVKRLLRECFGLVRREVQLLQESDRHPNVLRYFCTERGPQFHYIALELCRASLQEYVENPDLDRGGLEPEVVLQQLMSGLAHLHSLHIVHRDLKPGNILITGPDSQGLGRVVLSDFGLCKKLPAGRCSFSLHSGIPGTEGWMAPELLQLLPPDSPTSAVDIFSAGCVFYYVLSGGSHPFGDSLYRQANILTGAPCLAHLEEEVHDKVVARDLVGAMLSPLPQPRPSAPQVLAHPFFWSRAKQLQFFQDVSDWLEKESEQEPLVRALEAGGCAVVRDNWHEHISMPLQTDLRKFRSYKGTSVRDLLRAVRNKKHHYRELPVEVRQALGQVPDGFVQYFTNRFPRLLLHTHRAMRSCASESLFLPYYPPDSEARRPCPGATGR

EPHA1 = molecular target: T4, EPHA1 (Homo sapiens, UniProt P21709); test: Kinobeads two-dose competition binding: EPHA1; conditions: read-out: Lestaurtinib Drugmatrix value, Gene Name EPHA1
T4 construct: endogenous in cells
T4 sequence (P21709 26-976): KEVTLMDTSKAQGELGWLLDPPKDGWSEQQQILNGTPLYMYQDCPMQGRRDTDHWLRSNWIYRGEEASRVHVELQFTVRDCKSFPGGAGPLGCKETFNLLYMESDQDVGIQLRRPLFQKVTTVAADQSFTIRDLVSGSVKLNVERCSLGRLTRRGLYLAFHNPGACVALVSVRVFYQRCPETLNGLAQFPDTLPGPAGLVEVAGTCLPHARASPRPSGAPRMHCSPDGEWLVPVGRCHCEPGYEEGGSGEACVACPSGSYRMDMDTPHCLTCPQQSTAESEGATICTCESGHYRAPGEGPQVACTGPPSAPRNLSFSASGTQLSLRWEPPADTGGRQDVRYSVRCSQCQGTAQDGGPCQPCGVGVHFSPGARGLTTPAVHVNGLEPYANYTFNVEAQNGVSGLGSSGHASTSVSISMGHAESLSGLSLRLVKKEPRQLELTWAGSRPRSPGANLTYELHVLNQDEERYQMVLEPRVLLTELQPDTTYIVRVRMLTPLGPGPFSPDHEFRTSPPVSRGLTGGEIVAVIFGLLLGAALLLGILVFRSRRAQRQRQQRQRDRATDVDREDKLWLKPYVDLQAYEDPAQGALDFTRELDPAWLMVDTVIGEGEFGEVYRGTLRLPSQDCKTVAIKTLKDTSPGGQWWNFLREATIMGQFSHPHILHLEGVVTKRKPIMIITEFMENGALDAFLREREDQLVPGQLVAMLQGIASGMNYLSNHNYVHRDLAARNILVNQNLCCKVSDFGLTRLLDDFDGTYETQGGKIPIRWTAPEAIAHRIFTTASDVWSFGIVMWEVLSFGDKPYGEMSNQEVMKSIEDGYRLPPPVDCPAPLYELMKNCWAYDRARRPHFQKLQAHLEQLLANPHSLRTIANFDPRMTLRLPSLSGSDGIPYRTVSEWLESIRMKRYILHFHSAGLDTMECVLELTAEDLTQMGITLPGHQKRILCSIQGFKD

EPHA2 = molecular target: T5, EPHA2 (Homo sapiens, UniProt P29317); test: Kinobeads two-dose competition binding: EPHA2; conditions: read-out: Lestaurtinib Drugmatrix value, Gene Name EPHA2
T5 construct: endogenous in cells
T5 sequence (P29317 24-976): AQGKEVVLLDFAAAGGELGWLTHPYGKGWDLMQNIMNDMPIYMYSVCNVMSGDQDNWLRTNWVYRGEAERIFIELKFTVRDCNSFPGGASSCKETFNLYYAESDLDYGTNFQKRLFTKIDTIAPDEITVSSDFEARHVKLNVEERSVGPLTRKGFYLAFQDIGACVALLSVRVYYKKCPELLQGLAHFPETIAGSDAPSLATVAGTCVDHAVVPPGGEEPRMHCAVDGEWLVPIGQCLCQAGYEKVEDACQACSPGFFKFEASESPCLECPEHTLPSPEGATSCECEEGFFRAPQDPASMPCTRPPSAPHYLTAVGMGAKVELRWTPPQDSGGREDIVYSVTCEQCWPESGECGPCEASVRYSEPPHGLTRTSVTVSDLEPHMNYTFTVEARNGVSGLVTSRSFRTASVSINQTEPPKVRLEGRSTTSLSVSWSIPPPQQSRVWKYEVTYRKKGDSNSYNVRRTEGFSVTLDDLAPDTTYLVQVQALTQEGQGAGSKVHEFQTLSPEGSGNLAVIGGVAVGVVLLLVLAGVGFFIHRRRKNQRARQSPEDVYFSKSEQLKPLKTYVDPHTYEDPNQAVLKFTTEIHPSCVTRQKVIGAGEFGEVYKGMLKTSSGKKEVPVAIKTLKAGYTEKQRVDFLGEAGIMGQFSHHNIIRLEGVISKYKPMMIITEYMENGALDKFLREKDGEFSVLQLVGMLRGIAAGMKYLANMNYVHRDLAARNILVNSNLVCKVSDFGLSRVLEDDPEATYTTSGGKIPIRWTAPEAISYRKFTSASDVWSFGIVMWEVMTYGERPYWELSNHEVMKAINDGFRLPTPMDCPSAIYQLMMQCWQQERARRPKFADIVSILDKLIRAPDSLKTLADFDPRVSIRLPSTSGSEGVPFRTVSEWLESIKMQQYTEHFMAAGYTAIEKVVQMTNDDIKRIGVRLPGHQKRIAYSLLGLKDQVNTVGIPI

ULK3 = molecular target: T6, ULK3 (Homo sapiens, UniProt Q6PHR2); test: Kinobeads two-dose competition binding: ULK3
T6 construct: endogenous in cells
T6 sequence (Q6PHR2 whole entry): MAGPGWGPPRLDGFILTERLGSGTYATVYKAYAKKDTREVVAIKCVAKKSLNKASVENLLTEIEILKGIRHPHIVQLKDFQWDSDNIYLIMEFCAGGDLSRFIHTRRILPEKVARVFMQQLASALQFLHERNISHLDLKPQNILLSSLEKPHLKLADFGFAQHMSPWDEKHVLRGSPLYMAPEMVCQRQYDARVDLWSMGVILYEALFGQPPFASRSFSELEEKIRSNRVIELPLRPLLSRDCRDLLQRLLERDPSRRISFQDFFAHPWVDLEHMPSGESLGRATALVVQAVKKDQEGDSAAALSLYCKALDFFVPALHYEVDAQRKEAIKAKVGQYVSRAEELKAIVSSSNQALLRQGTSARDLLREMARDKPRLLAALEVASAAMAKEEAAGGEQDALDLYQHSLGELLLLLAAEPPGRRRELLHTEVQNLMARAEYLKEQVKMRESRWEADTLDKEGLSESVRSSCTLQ

[1] = EC50 with Correction, doses in nM, read-out: apparent Kd
[2] = eight-dose curve fit, doses in nM

## CCn1c(-c2nonc2N)nc2c(C#CC(C)(C)O)nc(OCCN)cc21 [GSK902056A]
MOB1A; 0.3nM compound, DMSO = 1
  Relative Intensity 0.3nM: 1.163
MOB1A; 1nM compound, DMSO = 1
  Relative Intensity 1nM: 0.99
MOB1A; 3nM compound, DMSO = 1
  Relative Intensity 3nM: 1.359
MOB1A; 10nM compound, DMSO = 1
  Relative Intensity 10nM: 0.9582
MOB1A; 30nM compound, DMSO = 1
  Relative Intensity 30nM: 0.9019
MOB1A; 100nM compound, DMSO = 1
  Relative Intensity 100nM: 0.7347
MOB1A; 300nM compound, DMSO = 1
  Relative Intensity 300nM: 0.3297
MOB1A; 1000nM compound, DMSO = 1
  Relative Intensity 1000nM: 0
MOB1A; [1]
  Kd: 223 nM
MOB1A; [2]
  EC50: 223 nM
PRKACA; 0.3nM compound, DMSO = 1
  Relative Intensity 0.3nM: 1.008
PRKACA; 1nM compound, DMSO = 1
  Relative Intensity 1nM: 0.9404
PRKACA; 3nM compound, DMSO = 1
  Relative Intensity 3nM: 0.9819
PRKACA; 10nM compound, DMSO = 1
  Relative Intensity 10nM: 0.932
PRKACA; 30nM compound, DMSO = 1
  Relative Intensity 30nM: 0.8034
PRKACA; 100nM compound, DMSO = 1
  Relative Intensity 100nM: 0.7942
PRKACA; 300nM compound, DMSO = 1
  Relative Intensity 300nM: 0.6618
PRKACA; 1000nM compound, DMSO = 1
  Relative Intensity 1000nM: 0.5702
PRKACA; [1]
  Kd: 212 nM
PRKACA; [2]
  EC50: 230 nM

## C[C@]12O[C@H](C[C@]1(O)CO)n1c3ccccc3c3c4c(c5c6ccccc6n2c5c31)CNC4=O [Lestaurtinib]
ERN2
  potency estimated from few doses: 346 nM
EPHA1
  potency estimated from few doses: 297 nM
EPHA2
  potency estimated from few doses: 428 nM
ULK3; read-out: Lestaurtinib Drugmatrix value, Gene Name ULK3, repeated control pulldowns; each column = experiment id and replicate (Lestaurtinib_02339_R1 ... Lestaurtinib_03260_R3)
  potency estimated from few doses: 113 nM
ULK3; read-out: Lestaurtinib Drugmatrix value, Gene Name ULK3; repeated control pulldowns; each column = experiment id and replicate (Lestaurtinib_02339_R1 ... Lestaurtinib_03260_R3)
  potency estimated from few doses: 218 nM
